Reference: patent publication US20100003217A1, “Compounds and Pharmaceutical Compositions for the Treatment of Viral Infections” (priority 2008, published 2010)
Several values for one entry are separate records, joined by “and”; a condition that tells them apart may be missing. Equal values may be shown once.

Test system: human primary hepatocytes
Assay: Metabolic disposition of [^14C]-Compound 1 and [^14C]-2′-C-methyl guanosine in human primary hepatocytes (incubation medium, cellular extracts, nucleotide levels)
Assay type: in vitro ADME
Conditions: for AUC (area under the concentration-time curve) of Compound 7 levels: 0-24 h
Procedure, shortened: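 Radio-HPLC and liquid scintillation counting quantified metabolites in incubation medium and in 70% methanol cell extracts. Samples came from cultured rat, monkey or human primary hepatocytes exposed at 37° C to 1 or 10 μM [^14C]-compound or [^14C]-2′-C-methyl guanosine, sampled at 1–24 hours. Phosphates were confirmed by phosphatase digestion to the nucleoside.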

[1] = human hepatocytes (Hu775), 1 μM [^14C]-Compound 1, 1 h
[2] = human hepatocytes (Hu775), 1 μM [^14C]-Compound 1, 8 h
[3] = human hepatocytes (Hu775), 1 μM [^14C]-Compound 1, 24 h
[4] = human hepatocytes Hu775, 1 μM [^14C]-2′-C-methyl guanosine, 1 h
[5] = human hepatocytes Hu775, 1 μM [^14C]-2′-C-methyl guanosine, 8 h
[6] = human hepatocytes Hu775, 1 μM [^14C]-2′-C-methyl guanosine, 24 h

## C[C@@]1(O)[C@H](O)[C@@H](COP(=O)(O)OP(=O)(O)OP(=O)(O)O)O[C@H]1n1cnc2c(=O)[nH]c(N)nc21 [Compound 7, [(2R)-2-methyl-β-D-ribofuranosyl]guanine 5′-triphosphate]
Human hepatocytes (Hu759, Hu775), 10 μM [^14C]-2′-C-methyl guanosine, 1 h
  metabolites observed in cellular extracts (% of total radioactivity): 2.40% and 3.93%
Human hepatocytes (Hu759, Hu775), 10 μM [^14C]-2′-C-methyl guanosine, 4 h
  metabolites observed in cellular extracts (% of total radioactivity): 11.1% and 19.4%
Human hepatocytes (Hu759, Hu775), 10 μM [^14C]-2′-C-methyl guanosine, 8 h
  metabolites observed in cellular extracts (% of total radioactivity): 19.6% and 34.1%
Human hepatocytes (Hu759, Hu775), 10 μM [^14C]-2′-C-methyl guanosine, 24 h
  metabolites observed in cellular extracts (% of total radioactivity): 36.1% and 45.8%
Human hepatocytes (Hu759, Hu775), 10 μM [^14C]-Compound 1, 1 h
  metabolites observed in cellular extracts (% of total radioactivity): 34.2% and 46.4%
Human hepatocytes (Hu759, Hu775), 10 μM [^14C]-Compound 1, 4 h
  metabolites observed in cellular extracts (% of total radioactivity): 63.1% and 69.7%
Human hepatocytes (Hu759, Hu775), 10 μM [^14C]-Compound 1, 8 h
  metabolites observed in cellular extracts (% of total radioactivity): 70.5% and 74.1%
Human hepatocytes (Hu759, Hu775), 10 μM [^14C]-Compound 1, 24 h
  metabolites observed in cellular extracts (% of total radioactivity): 69.5% and 59.6%
[1]
  2′-C-methyl guanosine nucleotide levels in cellular extracts: 8.80 pmol/million cells
  metabolites observed in cellular extracts (% of total radioactivity): 48.5%
[2]
  2′-C-methyl guanosine nucleotide levels in cellular extracts: 44.2 pmol/million cells
  metabolites observed in cellular extracts (% of total radioactivity): 75.0%
[3]
  2′-C-methyl guanosine nucleotide levels in cellular extracts: 60.4 pmol/million cells
  metabolites observed in cellular extracts (% of total radioactivity): 67.0%
Human hepatocytes (n=1), 1 μM [^14C]-2′-C-methyl guanosine
  Compound 7 AUC0-24h: 302 pmol*h/million cells
Human hepatocytes (n=1), 1 μM [^14C]-Compound 1
  Compound 7 AUC0-24h: 1,027 pmol*h/million cells
Human hepatocytes (n=2), 10 μM [^14C]-Compound 1, mean
  Compound 7 AUC0-24h: 7,398 pmol*h/million cells
Human hepatocytes Hu759, 10 μM [^14C]-2′-C-methyl guanosine, 0 h
  2′-C-methyl guanosine nucleotide levels in cellular extracts: 0 pmol/million cells
Human hepatocytes Hu759, 10 μM [^14C]-2′-C-methyl guanosine
  AUC (area under the concentration-time curve) of Compound 7 levels: 2871 pmol * hr/million cells
Human hepatocytes Hu759, 10 μM [^14C]-2′-C-methyl guanosine, 1 h
  2′-C-methyl guanosine nucleotide levels in cellular extracts: 9.70 pmol/million cells
Human hepatocytes Hu759, 10 μM [^14C]-2′-C-methyl guanosine, 4 h
  2′-C-methyl guanosine nucleotide levels in cellular extracts: 51.0 pmol/million cells
Human hepatocytes Hu759, 10 μM [^14C]-2′-C-methyl guanosine, 8 h
  2′-C-methyl guanosine nucleotide levels in cellular extracts: 96.0 pmol/million cells
Human hepatocytes Hu759, 10 μM [^14C]-2′-C-methyl guanosine, 24 h
  2′-C-methyl guanosine nucleotide levels in cellular extracts: 214 pmol/million cells
Human hepatocytes Hu759, 10 μM [^14C]-Compound 1, 0 h
  2′-C-methyl guanosine nucleotide levels in cellular extracts: 0 pmol/million cells
Human hepatocytes Hu759, 10 μM [^14C]-Compound 1
  AUC (area under the concentration-time curve) of Compound 7 levels: 5759 pmol * hr/million cells
Human hepatocytes Hu759, 10 μM [^14C]-Compound 1, 1 h
  2′-C-methyl guanosine nucleotide levels in cellular extracts: 24.0 pmol/million cells
Human hepatocytes Hu759, 10 μM [^14C]-Compound 1, 4 h
  2′-C-methyl guanosine nucleotide levels in cellular extracts: 166 pmol/million cells
Human hepatocytes Hu759, 10 μM [^14C]-Compound 1, 8 h
  2′-C-methyl guanosine nucleotide levels in cellular extracts: 225 pmol/million cells
Human hepatocytes Hu759, 10 μM [^14C]-Compound 1, 24 h
  2′-C-methyl guanosine nucleotide levels in cellular extracts: 360 pmol/million cells
Human hepatocytes Hu775, 1 μM [^14C]-2′-C-methyl guanosine
  AUC (area under the concentration-time curve) of Compound 7 levels: 302 pmol * hr/million cells
[4]
  2′-C-methyl guanosine nucleotide levels in cellular extracts: 1.90 pmol/million cells
  Major metabolites observed in cellular extracts (% of total radioactivity): 5.36 % of total radioactivity
[5]
  2′-C-methyl guanosine nucleotide levels in cellular extracts: 11.0 pmol/million cells
  Major metabolites observed in cellular extracts (% of total radioactivity): 27.3 % of total radioactivity
[6]
  2′-C-methyl guanosine nucleotide levels in cellular extracts: 21.0 pmol/million cells
  Major metabolites observed in cellular extracts (% of total radioactivity): 46.3 % of total radioactivity
Human hepatocytes Hu775, 1 μM [^14C]-Compound 1
  AUC (area under the concentration-time curve) of Compound 7 levels: 1027 pmol * hr/million cells
Human hepatocytes Hu775, 10 μM [^14C]-2′-C-methyl guanosine, 0 h
  2′-C-methyl guanosine nucleotide levels in cellular extracts: 0 pmol/million cells
Human hepatocytes Hu775, 10 μM [^14C]-2′-C-methyl guanosine
  AUC (area under the concentration-time curve) of Compound 7 levels: 3548 pmol * hr/million cells
Human hepatocytes Hu775, 10 μM [^14C]-2′-C-methyl guanosine, 1 h
  2′-C-methyl guanosine nucleotide levels in cellular extracts: 18.5 pmol/million cells
Human hepatocytes Hu775, 10 μM [^14C]-2′-C-methyl guanosine, 4 h
  2′-C-methyl guanosine nucleotide levels in cellular extracts: 86 pmol/million cells and 86.0 pmol/million cells
Human hepatocytes Hu775, 10 μM [^14C]-2′-C-methyl guanosine, 8 h
  2′-C-methyl guanosine nucleotide levels in cellular extracts: 149 pmol/million cells
Human hepatocytes Hu775, 10 μM [^14C]-2′-C-methyl guanosine, 24 h
  2′-C-methyl guanosine nucleotide levels in cellular extracts: 215 pmol/million cells
Human hepatocytes Hu775, 10 μM [^14C]-Compound 1, 0 h
  2′-C-methyl guanosine nucleotide levels in cellular extracts: 0 pmol/million cells
